Results: US7112565B2, “Stabilized pharmaceutical composition in lyophilized form” (Astellas Pharma Inc., priority 1999, dated 2006)

How the values were obtained:
Assay type in all cases: physicochemical
[1] = Test Example 1: effect of stabilizer on stability of lyophilized compositions of Compound (II)
Experimental: Effect of Stabilizer in Stabilizing Lyophilized Compositions of Compound (II)
(§1) 10 mg of Compound (II) and, as a stabilizer, 100 mg of lactose or 9 mg of sodium chloride were dissolved completely in 1 ml of water. The resulting solutions were lyophilized and maintained at 70° C. in glass vials. Nine days after, the resulting compositions were tested on their appearance, the residual amount of Compound (II), and others. As a control, used was a solution of Compound (II) without any stabilizers.

[2] = Test Example 4: stability of lyophilized compositions of 200 mg of lactose and Compound (II) in vial
Experimental: as §1
Stability of Lyophilized Compositions of 200 mg of Lactose and Compound (II) in Vial
Tests were carried out in the same manner as in Test Example 1 except that 12.5 mg, 25 mg, 50 mg, 75 mg or 100 mg of Compound (II) were used with 200 mg of lactose. […] Regarding all the compositions, their appearance is a white mass, the time for reconstitutional dissolution was 15 seconds, and the color and the clarity of reconstituted solutions of the compositions were colorless and transparent.

[3] = Test Example 6: dependence of stability on the pH of the solution before lyophilizing; settings: for Residual amount / Water content / pH of reconstituted solution in 5 ml of purified water: 10 mg Compound (II) + 100 mg lactose
Experimental: Dependence of the Stability of Lyophilized Compositions of Compound (II) upon the pH Value of the Solution of the Composition before Lyophilizing
10 mg of Compound (II) and, as a stabilizer, 100 mg of lactose were dissolved completely in 1 ml of citrate-NaOH buffer having different pH value between pH 4.0 to 7.0. The resulting solutions having different pH values were lyophilized and maintained at 70° C. in glass vials. Nine days after, the resulting compositions were tested on their pH and the residual amount of Compound (II).

[4] = Test Example 3: dependence of stability on the amount of lactose added; settings: after 3 months at 40° C. and 75% humidity
[5] = 10 mg Compound (II) + lactose (100 mg), 0 hours
[6] = 10 mg Compound (II) + lactose (100 mg), after 9 days at 70° C.
[7] = 10 mg Compound (II) + sodium chloride (9 mg), 0 hours
[8] = 10 mg Compound (II) + sodium chloride (9 mg), after 9 days at 70° C.
[9] = 10 mg Compound (II), control: nil stabilizer, 0 hours
[10] = 10 mg Compound (II), control: nil stabilizer, after 9 days at 70° C.
[11] = 12.5 mg Compound (II) + 200 mg lactose, 0 hours
[12] = 12.5 mg Compound (II) + 200 mg lactose, after 3 months at 40° C. and 75% humidity
[13] = 12.5 mg Compound (II) + 200 mg lactose, after 9 days at 70° C.
[14] = 12.5 mg Compound (II) + 200 mg lactose, after 21 days at 60° C.
[15] = 25 mg Compound (II) + 200 mg lactose, 0 hours
[16] = 25 mg Compound (II) + 200 mg lactose, after 9 days at 70° C.
[17] = 25 mg Compound (II) + 200 mg lactose, after 21 days at 60° C.
[18] = 50 mg Compound (II) + 200 mg lactose, 0 hours
[19] = 50 mg Compound (II) + 200 mg lactose, after 3 months at 40° C. and 75% humidity
[20] = 50 mg Compound (II) + 200 mg lactose, after 9 days at 70° C.
[21] = 50 mg Compound (II) + 200 mg lactose, after 21 days at 60° C.
[22] = 75 mg Compound (II) + 200 mg lactose, 0 hours
[23] = 75 mg Compound (II) + 200 mg lactose, after 3 months at 40° C. and 75% humidity
[24] = 75 mg Compound (II) + 200 mg lactose, after 9 days at 70° C.
[25] = 75 mg Compound (II) + 200 mg lactose, after 21 days at 60° C.
[26] = 100 mg Compound (II) + 200 mg lactose, 0 hours
[27] = 100 mg Compound (II) + 200 mg lactose, after 3 months at 40° C. and 75% humidity
[28] = 100 mg Compound (II) + 200 mg lactose, after 9 days at 70° C.
[29] = 100 mg Compound (II) + 200 mg lactose, after 21 days at 60° C.
[30] = all compositions: 12.5 to 100 mg Compound (II) + 200 mg lactose
[31] = solution pH 4.0 before lyophilizing, 0 hours
[32] = solution pH 4.0 before lyophilizing, 9 days at 70° C.
[33] = solution pH 4.5 before lyophilizing, 0 hours
[34] = solution pH 4.5 before lyophilizing, 9 days at 70° C.
[35] = solution pH 5.0 before lyophilizing, 0 hours
[36] = solution pH 5.0 before lyophilizing, 9 days at 70° C.
[37] = solution pH 5.5 before lyophilizing, 0 hours
[38] = solution pH 5.5 before lyophilizing, 9 days at 70° C.
[39] = solution pH 6.0 before lyophilizing, 0 hours
[40] = solution pH 6.0 before lyophilizing, 9 days at 70° C.
[41] = solution pH 6.5 before lyophilizing, 0 hours
[42] = solution pH 6.5 before lyophilizing, 9 days at 70° C.
[43] = solution pH 7.0 before lyophilizing, 0 hours
[44] = solution pH 7.0 before lyophilizing, 9 days at 70° C.

CCCCCOc1ccc(-c2cc(-c3ccc(C(=O)NC4CC(O)C(O)NC(=O)C5C(O)C(C)CN5C(=O)C(C(O)CC(N)=O)NC(=O)C(C(O)C(O)c5ccc(O)c(OS(=O)(=O)[O-])c5)NC(=O)C5CC(O)CN5C(=O)C(C(C)O)NC4=O)cc3)no2)cc1.[Na+] (centres unmarked) [Compound (II)]
Appearance [1, 5]: White mass | Residual amount [1, 5]: 100.0% | Water content [1, 5]: 1.0% | pH of reconstituted solution in 1 ml of water [1, 5]: 6.4 | Appearance [1, 6]: White mass | Residual amount [1, 6]: 99.5% | pH of reconstituted solution in 1 ml of water [1, 6]: 6.1 | Appearance [1, 7]: White mass | Residual amount [1, 7]: 100.0% | Water content [1, 7]: 0.7% | pH of reconstituted solution in 1 ml of water [1, 7]: 6.7 | Appearance [1, 8]: White mass | Residual amount [1, 8]: 75.9% | pH of reconstituted solution in 1 ml of water [1, 8]: 6.3 | Appearance [1, 9]: White mass | Residual amount [1, 9]: 100.0% | Water content [1, 9]: 1.3% | pH of reconstituted solution in 1 ml of water [1, 9]: 7.1 | Appearance [1, 10]: Slightly yellow mass | Residual amount [1, 10]: 8.0% | pH of reconstituted solution in 1 ml of water [1, 10]: 2.7 | Stability of lyophilized composition (conclusion from Tables 1 and 2) ([1]; with lactose, sodium chloride, maltose or sucrose, compared with no stabilizer or other stabilizers): significantly stable | Residual amount [2, 11]: 100.0% | Total impurities [2, 11]: 2.24% | Water content [2, 11]: 1.3% | pH of reconstituted solution in 5 ml of purified water [2, 11]: 6.63 | Residual amount [2, 12]: 99.6% | Total impurities [2, 12]: 2.71% | pH of reconstituted solution in 5 ml of purified water [2, 12]: 6.08 | Residual amount [2, 13]: 98.1% | Total impurities [2, 13]: 3.95% | pH of reconstituted solution in 5 ml of purified water [2, 13]: 6.15 | Residual amount [2, 14]: 97.5% | Total impurities [2, 14]: 3.75% | pH of reconstituted solution in 5 ml of purified water [2, 14]: 6.31 | Residual amount [2, 15]: 100.0% | Total impurities [2, 15]: 2.25% | Water content [2, 15]: 1.1% | pH of reconstituted solution in 5 ml of purified water [2, 15]: 6.37 | Total impurities ([2]; 25 mg Compound (II) + 200 mg lactose, after 3 months at 40° C. and 75% humidity): 2.68% | Residual amount [2, 16]: 99.3% | Total impurities [2, 16]: 4.03% | pH of reconstituted solution in 5 ml of purified water [2, 16]: 6.07 | Residual amount [2, 17]: 98.2% | Total impurities [2, 17]: 3.49% | pH of reconstituted solution in 5 ml of purified water [2, 17]: 6.11 | Residual amount [2, 18]: 100.0% | Total impurities [2, 18]: 2.25% | Water content [2, 18]: 1.2% | pH of reconstituted solution in 5 ml of purified water [2, 18]: 6.26 | Residual amount [2, 19]: 100.5% | Total impurities [2, 19]: 2.74% | pH of reconstituted solution in 5 ml of purified water [2, 19]: 6.00 | Residual amount [2, 20]: 97.9% | Total impurities [2, 20]: 3.95% | pH of reconstituted solution in 5 ml of purified water [2, 20]: 5.99 | Residual amount [2, 21]: 97.3% | pH of reconstituted solution in 5 ml of purified water [2, 21]: 6.00 | Residual amount [2, 22]: 100.0% | Total impurities [2, 22]: 2.28% | Water content [2, 22]: 0.9% | pH of reconstituted solution in 5 ml of purified water [2, 22]: 6.13 | Residual amount [2, 23]: 99.0% | Total impurities [2, 23]: 2.76% | pH of reconstituted solution in 5 ml of purified water [2, 23]: 6.04 | Residual amount [2, 24]: 98.1% | Total impurities [2, 24]: 4.14% | pH of reconstituted solution in 5 ml of purified water [2, 24]: 5.95 | Total impurities [2, 25]: 3.83% | pH of reconstituted solution in 5 ml of purified water [2, 25]: 5.96 | Residual amount [2, 26]: 100.0% | Total impurities [2, 26]: 2.46% | Water content [2, 26]: 1.3% | pH of reconstituted solution in 5 ml of purified water [2, 26]: 6.03 | Residual amount [2, 27]: 99.5% | Total impurities [2, 27]: 2.79% | Residual amount [2, 28]: 97.8% | Total impurities [2, 28]: 4.15% | pH of reconstituted solution in 5 ml of purified water [2, 28]: 5.92 | Residual amount [2, 29]: 96.7% | Total impurities [2, 29]: 3.92% | pH of reconstituted solution in 5 ml of purified water [2, 29]: 5.88 | Appearance [2, 30]: white mass | Clarity of reconstituted solutions [2, 30]: transparent | Color of reconstituted solutions [2, 30]: colorless | Time for reconstitutional dissolution [2, 30]: 15 s | Residual amount ([3]; all solution pH values 4.0 to 7.0, 0 hours): 100% | Water content [3, 31]: 0.2% | pH of reconstituted solution in 5 ml of purified water [3, 31]: 3.9 | Residual amount [3, 32]: 94.4% | pH of reconstituted solution in 5 ml of purified water [3, 32]: 4.0 | Water content [3, 33]: 0.2% | pH of reconstituted solution in 5 ml of purified water [3, 33]: 4.4 | Residual amount [3, 34]: 95.9% | pH of reconstituted solution in 5 ml of purified water [3, 34]: 4.5 | Water content [3, 35]: 0.3% | pH of reconstituted solution in 5 ml of purified water [3, 35]: 4.8 | Residual amount [3, 36]: 97.4% | pH of reconstituted solution in 5 ml of purified water [3, 36]: 4.9 | Water content [3, 37]: 0.3% | pH of reconstituted solution in 5 ml of purified water [3, 37]: 5.4 | Residual amount [3, 38]: 98.5% | pH of reconstituted solution in 5 ml of purified water [3, 38]: 5.4 | Water content [3, 39]: 0.3% | pH of reconstituted solution in 5 ml of purified water [3, 39]: 5.8 | Residual amount [3, 40]: 97.7% | pH of reconstituted solution in 5 ml of purified water [3, 40]: 5.8 | Water content [3, 41]: 0.4% | pH of reconstituted solution in 5 ml of purified water [3, 41]: 6.4 | Residual amount [3, 42]: 96.9% | pH of reconstituted solution in 5 ml of purified water [3, 42]: 6.4 | Water content [3, 43]: 0.3% | pH of reconstituted solution in 5 ml of purified water [3, 43]: 6.8 | Residual amount [3, 44]: 95.8% | pH of reconstituted solution in 5 ml of purified water [3, 44]: 6.8 | Stability of composition (conclusion from Table 5) ([3]; after lyophilizing the solution at pH 4.0 to 7.0 at least, preferably pH 4.5 to 7.0): stable | Appearance ([4]; 10 mg Compound (II) + 20 mg lactose): White mass | pH of reconstituted solution in 1 ml of water ([4]; 10 mg Compound (II) + 50 mg lactose): 6.26 | Clarity of reconstituted solution in 1 ml of water ([4]; 10 mg Compound (II) + 100 mg lactose): Clear
